“Also recorded” adds a separate entry of the source.
Columns and labels:
Format in all cases: cell-based
[1] = biological target: T1, PIM2 (Homo sapiens, UniProt Q9P1W9); experiment: FOXP3 phosphorylation induced by PIM2 in HEK293T cells (immunoblot); settings: Myc-FOXP3 + FLAG-PIM2, 50 μM, 12 h
T1 construct: expressed in transfected cells; host or cells: HEK293T
Description: (§1) Myc-FOXP3, FLAG-PIM1, FLAG-PIM2, and FLAG-PIM3 were co-transfected into HEK293T cells. 36 h later, cells were treated with 50 μM of kaempferol for 12 h. Cells were collected 48 h after cell transfection.
(§2) Protein samples were subjected to SDS-PAGE, and then transferred to nitrocellulose membrane, which was then sealed in TBST containing 5% nonfat dry milk or 3% bovine serum albumin for 1 h. Primary antibody was added and incubated for 1 h and then HRP-conjugated secondary antibody was added and incubated for 1 h, and results shown by exposure with ECL substrates.
(§3) HEK293T cells were co-transfected, respectively, with Myc-FOXP3+FLAG-PIM1, Myc-FOXP3+FLAG-PIM2, and Myc-FOXP3+FLAG-PIM3. 36 h later, cells were treated with 50 μM kaempferol for 12 h. After 48 h. cells were collected and lysed with cell lysis buffer.

[2] = biological target: T2, PIM3 (Homo sapiens, UniProt Q86V86); experiment: FOXP3 phosphorylation induced by PIM3 in HEK293T cells (immunoblot); settings: Myc-FOXP3 + FLAG-PIM3, 50 μM, 12 h
T2 construct: expressed in transfected cells; host or cells: HEK293T
Description: as §1, §2, §3

[3] = test system: Jurkat cells stably expressing HA-FOXP3; experiment: FOXP3 protein degradation induced by PMA/LPS in Jurkat cells stably expressing HA-FOXP3 (immunoblot); settings: PMA 25 ng/ml + LPS 1 ng/ml, 24 h; kaempferol 50 μM, PIM1 inhibitor 100 nM, PI3K inhibitor 10 μg/ml; DMSO control
Description: HA-FOXP3-Jurkat stable expression cells were treated with PMA (25 ng/ml) and LPS (1 ng/ml). 50 μM kaempferol, 100 nM PIM1 inhibitors (specifically of 4-[3-(4-chlorophenyl)-2,1-benzisoxazol-5-yl]-2-pyrimidinamine), and 10 μg/ml PI3K inhibitor (LY294002) were added, and DMSO as a control. Cells were collected 24 h later. The levels of FOXP3 and GAPDH were detected directly by immunoblot.
Human embryonic kidney cell line HEK293 was co-transfected with FUGW-HA-FOXP3, del 8.9 and VSV-G. Cell culture supernatants were collected 48 h and 72 h after transfection. Viruses were purified by ultracentrifugation and used to infect Jurkat E6.1 to ultimately obtain Jurkat cell lines stably expressing HA-FOXP3.
as §2
Jurkat cells stably expressing HA-FOXP3 were treated with PMA (25 ng/ml) and LPS (1 ng/ml). Each sample was added 50 μM kaempferol, 100 nM PIM1 inhibitor (i.e., 4-[3-(4-chlorophenyl)-2,1-benzisoxazol-5-yl]-2-pyrimidinamine), and 10 μg/ml PI3K inhibitor (LY294002). DMSO serves as a control. Cells were collected after 24 h.

[4] = test system: induced Treg cells from human CD4+ CD45RA+ natural T cells; experiment: FOXP3 and CTLA4 expression in induced Treg (flow cytometry); settings: 50 uM, 48 h, vs DMSO control group
Description: Human CD4+ CD45RA+ natural T cells (i.e., natural T cells rather than Treg cells) were sorted by BD FACS Aria II flow sorter and expanded by Bead-CD3/CD28 (2:1), IL-2 (100 U/ml), and TGF-β (1 ng/ml, 3 ng/ml, and 5 ng/ml) for 5 days. DMSO or kaempferol (50 uM) was added and treated for 48 h. Flow cytometry analysis was performed after PE-FOXP3 (FIG. 14B) and APC-CTLA4 (FIG. 14A) antibody staining.
Human CD4+ CD45RA+ natural T cells (i.e., natural T cells rather than Treg cells) were sorted by BD FACS Aria II flow sorter and expanded using Bead-CD3/CD28 (2:1). IL-2 (100 U/ml), and TGF-β (1 ng/ml, 3 ng/ml, and 5 ng/ml) for 5 days to obtain the induced Treg cells. DMSO or kaempferol (50 uM) was added and treated for 48 h.

[5] = biological target: T3, PIM1 (Homo sapiens, UniProt P11309); experiment: FOXP3 S422 phosphorylation induced by PIM1 in HEK293T cells (immunoblot); set-up: expressed in transfected cells; host or cells: HEK293T
Description: Myc-FOXP3 and FLAG-PIM1 were co-transfected into HEK293T cells. After 36 h, cells were treated, respectively, with 50 nM, 10 nM, 2 nM, 0.4 nM of PIM1 inhibitor and 50 μM, 10 μM, 2 μM, 0.4 μM, 0.08 μM of kaempferol for 12 h. Cells were collected at 48 h after cell transfection.
as §1
(§4) FLAG-PIM1 was transfected and MYC-FOXP3 and FLAG-PIM1 co-transfected into HEK293T cells. After 36 h, HEK293 was used as blank control group and each group was treated with 50 μM of kaempferol for 12 h. After 48 h, cells collected and lysed by cell lysis buffer. The levels of pS422-FOXP3, FOXP3, phosphorylated-histone H3 (Ser10), histone H3, and GAPDH were detected directly by immunoblot.
Protein samples were subjected to SDS-PAGE, and then transferred to nitrocellulose membrane, which was then sealed in TBST containing 5% nonfat dry milk or 3% bovine serum albumin for 1 h. […]
HEK293T cells were transfected with FLAG-PIM1, and co-transfected with MYC-FOXP3 and FLAG-PIM1. […] The levels of pS422-FOXP3, FOXP3, histone H3 Ser10 phosphorylation, histone H3, and GAPDH were directly detected by immunoblot (results shown in FIG. 12).

[6] = biological target: T3, PIM1; experiment: Histone H3 S10 phosphorylation induced by PIM1 in HEK293T cells (immunoblot); set-up: expressed in transfected cells; host or cells: HEK293T; settings: 50 μM, 12 h
Description: FLAG-PIM1 was transfected into HEK293T cells. 36 h later, cells were treated with 50 μM of kaempferol for 12 h. 48 h after cell transfection, cells were treated in whole cell lysis solution. The levels of phosphorylated (Phospho)-histone H3S10, histone H3, and PIM1 were detected directly by immunoblot.
as §4, §2
HEK293T cells were co-transfected with MYC-FOXP3 and FLAG-PIM1. 36 h later, cells were treated with 50 μM of kaempferol for 12 h. Cells were collected at 48h after transfection and directly sonicated in SDS-loading buffer, and lysed by boiling.
HEK293T cells were transfected with FLAG-PIM1, and co-transfected with MYC-FOXP3 and FLAG-PIM1. 36 h later, HEK293 was used as blank control group and each group was treated with 50 μM of kaempferol for 12 h, respectively. Cells were collected alter 48 h and lysed with cell lysis buffer. The levels of pS422-FOXP3, FOXP3, histone H3 Ser10 phosphorylation, histone H3, and GAPDH were directly detected by immunoblot (results shown in FIG. 12).

[7] = HEK293T transfected with FLAG-PIM1

T3 sequence (P11309 whole entry): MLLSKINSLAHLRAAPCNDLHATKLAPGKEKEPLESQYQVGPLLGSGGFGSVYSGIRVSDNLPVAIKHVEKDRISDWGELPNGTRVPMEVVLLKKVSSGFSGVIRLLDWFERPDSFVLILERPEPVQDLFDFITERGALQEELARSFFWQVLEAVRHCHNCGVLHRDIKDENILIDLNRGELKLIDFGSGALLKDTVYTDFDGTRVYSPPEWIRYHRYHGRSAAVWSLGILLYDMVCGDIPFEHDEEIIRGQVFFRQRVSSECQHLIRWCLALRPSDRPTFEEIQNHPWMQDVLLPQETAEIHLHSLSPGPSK
T1 sequence (Q9P1W9 whole entry): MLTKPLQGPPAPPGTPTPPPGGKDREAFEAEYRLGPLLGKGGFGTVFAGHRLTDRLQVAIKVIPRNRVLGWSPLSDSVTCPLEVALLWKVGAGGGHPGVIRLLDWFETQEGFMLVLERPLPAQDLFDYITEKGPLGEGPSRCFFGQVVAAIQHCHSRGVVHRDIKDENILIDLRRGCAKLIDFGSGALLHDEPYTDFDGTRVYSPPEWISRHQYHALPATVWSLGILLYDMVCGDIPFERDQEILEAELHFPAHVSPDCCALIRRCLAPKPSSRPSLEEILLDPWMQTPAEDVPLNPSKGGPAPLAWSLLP

FOXP3 phosphorylation levels induced by PIM2 [1]: does not affect | FOXP3 phosphorylation levels induced by PIM3 [2]: does not affect | PIM1 expression levels [6, 7]: does not affect | histone H3 S10 phosphorylation induced by PIM1 [6, 7]: inhibits; also recorded: can inhibit | histone H3 S10 phosphorylation in the control group ([6]; HEK293 blank control group (no PIM1 transfection)): does not affect
Compound: O=c1c(O)c(-c2ccc(O)cc2)oc2cc(O)cc(O)c12 [kaempferol]
FOXP3 protein degradation [3]: can inhibit | CLTA4+ FOXP3+ Treg cell levels [4]: significantly increase | FOXP3 expression levels [4]: significantly increase | FOXP3 S422 phosphorylation, dose response ([5]; MYC-FOXP3 + FLAG-PIM1, 50, 10, 2, 0.4, 0.08 μM for 12 h): inhibits FOXP3 S422 phosphorylation in a dose-dependent manner | FOXP3 S422 phosphorylation induced by PIM1 ([5]; Myc-FOXP3 + FLAG-PIM1, 50 μM, 12 h): specifically inhibits; also recorded: can inhibit
